Tests used:
Experiment in all cases: relative viability (nuclei count vs DMSO), 5 days (fraction); higher = more cells survive
[1] = compound: COC1=CC=C(C=C1)CN2C=CC3=C2C=C(C=C3)C(=O)NO + CC(C)C[C@H](NC(=O)[C@H](Cc1ccccc1)NC(=O)c1cnccn1)B(O)O [Bortezomib] (partner 0.002 µM)
How it was run: (§1)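 A single step with final 0.05% Triton X-100, 1% formaldehyde and 1 ug/ml Hoechst fixed the cells and stained nuclei 5 days after treatment. Lung cancer cell lines in 1536-well plates had been treated by pin tool the day after seeding with one drug alone or a fixed anchor-drug dose plus five library-drug doses (not always all listed) in √10 steps, and nuclei were counted on 4× images. Relative viability is the ratio of nuclei in treated wells to nuclei in vehicle wells, taken as the median of duplicate plates.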

[2] = compound: COC1=CC=C(C=C1)CN2C=CC3=C2C=C(C=C3)C(=O)NO + CC1(C)CCC(c2ccc(Cl)cc2)=C(CN2CCN(c3ccc(C(=O)NS(=O)(=O)c4ccc(N[C@H](CCN5CCOCC5)CSc5ccccc5)c(S(=O)(=O)C(F)(F)F)c4)cc3)CC2)C1 [Navitoclax] (partner 0.5 µM)
How it was run: as §1

[3] = compound: COC1=CC=C(C=C1)CN2C=CC3=C2C=C(C=C3)C(=O)NO + Nc1nc2[nH]cc(CCc3ccc(C(=O)N[C@@H](CCC(=O)O)C(=O)O)cc3)c2c(=O)[nH]1 [Pemetrexed] (partner 0.2 µM)
How it was run: as §1

Veliparib + Phenformin = compound: C[C@]1(c2nc3c(C(N)=O)cccc3[nH]2)CCCN1 [Veliparib] + N=C(N)NC(=N)NCCc1ccccc1 [Phenformin] (partner 250 µM)
How it was run: as §1

Row | Cell Line | relative viability ([1]; first compound 0.253 µM) | relative viability ([1]; first compound 0.8 µM) | relative viability ([1]; first compound 2.53 µM) | relative viability ([1]; first compound 8 µM) | relative viability ([2]; first compound 0.253 µM) | relative viability ([2]; first compound 0.8 µM) | relative viability ([2]; first compound 2.53 µM) | relative viability ([2]; first compound 8 µM) | relative viability ([3]; first compound 0.253 µM) | relative viability ([3]; first compound 0.8 µM) | relative viability ([3]; first compound 2.53 µM) | relative viability ([3]; first compound 8 µM) | relative viability (Veliparib + Phenformin; first compound 0.02 µM) | relative viability (Veliparib + Phenformin; first compound 0.06325 µM) | relative viability (Veliparib + Phenformin; first compound 0.2 µM) | relative viability (Veliparib + Phenformin; first compound 0.6325 µM) | relative viability (Veliparib + Phenformin; first compound 2 µM) | relative viability ([1]; first compound 0.08 µM) | relative viability ([2]; first compound 0.08 µM) | relative viability ([3]; first compound 0.08 µM)
1 | NCI-H1734 | 1.03 | 0.91 | 0.898 | 0.725 | 0.899 | 0.947 | 0.805 | 0.882 | 0.413 | 0.427 | 0.4 | 0.414 | 0.358 | 0.379 | 0.383 | 0.33 | 0.455 |  |  | 
2 | NCI-H1755 | 0.992 | 0.949 | 0.992 | 0.97 | 1.02 | 1 | 1.03 | 1.02 | 0.379 | 0.443 | 0.437 | 0.512 | 0.637 | 0.629 | 0.631 | 0.518 | 0.608 | 0.91 | 0.949 | 0.421
3 | NCI-H1792 | 0.945 | 0.979 | 0.931 | 0.7 | 0.55 | 0.481 | 0.646 | 0.601 | 0.952 | 1 | 1.05 | 0.832 | 0.212 | 0.213 | 0.398 | 0.328 | 0.247 | 0.95 | 0.574 | 0.907
4 | NCI-H1915 | 0.921 | 0.989 | 0.924 | 1.02 | 0.778 | 0.799 | 0.807 | 0.781 | 0.527 | 0.49 | 0.485 | 0.447 | 0.379 | 0.36 | 0.345 | 0.36 | 0.361 | 0.769 | 0.724 | 0.441
5 | NCI-H1975 | 0.382 | 0.408 | 0.455 | 0.363 | 1.17 | 1.26 | 1.06 | 1.16 | 0.294 | 0.299 | 0.291 | 0.286 | 0.434 | 0.395 | 0.407 | 0.368 | 0.397 | 0.422 | 0.979 | 0.288
6 | NCI-H1993 | 1.16 | 1.15 | 1.2 | 1.04 | 1.02 | 1.04 | 1.09 | 0.991 | 0.529 | 0.648 | 0.603 | 0.549 | 0.568 | 0.567 | 0.561 | 0.552 | 0.482 | 0.934 | 0.68 | 0.542
7 | NCI-H2009 | 0.967 | 0.958 | 0.975 | 0.84 | 1.19 | 1.13 | 1.18 | 1.13 | 1.12 | 1 | 0.983 | 1.1 | 0.455 | 0.452 | 0.483 | 0.457 | 0.473 | 0.771 | 1.23 | 1.05
8 | NCI-H2023 | 1.05 | 0.944 | 1.03 | 0.878 | 1.07 | 0.946 | 0.994 | 0.98 | 0.199 | 0.207 | 0.208 | 0.209 | 0.39 | 0.417 | 0.39 | 0.384 | 0.411 | 0.728 | 0.94 | 0.23
9 | NCI-H2085 | 1.24 | 1.14 | 1.1 | 1.08 | 1.04 | 1.19 | 1.01 | 1.08 | 0.951 | 1.02 | 0.941 | 0.948 |  | 0.734 | 0.795 | 0.652 | 0.699 | 1.05 | 0.891 | 1.07
10 | NCI-H2087 | 0.775 | 0.898 | 0.754 | 0.606 | 1.03 | 1.13 | 1.08 | 0.856 | 0.56 | 0.669 | 0.599 | 0.535 | 0.334 | 0.467 | 0.428 | 0.435 | 0.486 | 0.863 | 0.974 | 0.575
11 | NCI-H2126 | 1.09 | 1.15 | 1.12 | 1.05 | 0.931 | 0.849 | 0.848 | 0.886 | 0.73 | 0.672 | 0.706 | 0.649 | 0.556 | 0.535 | 0.519 | 0.498 | 0.541 | 1.06 | 0.824 | 0.669
12 | NCI-H2228 | 1.03 | 0.93 | 1.18 | 0.863 | 1.19 | 1.04 | 1.1 | 0.411 | 0.347 | 0.336 | 0.343 | 0.298 | 0.209 | 0.301 | 0.276 | 0.284 | 0.236 | 1.22 | 0.955 | 0.311
13 | NCI-H2347 | 0.933 | 0.887 | 0.874 | 0.727 | 0.883 | 0.843 | 0.968 | 0.762 | 0.44 | 0.405 | 0.473 | 0.453 | 0.426 | 0.273 | 0.473 | 0.464 | 0.366 |  | 0.579 | 0.399
14 | NCI-H2405 | 0.924 | 1.02 | 1.01 | 0.961 | 0.82 | 0.764 | 0.775 | 0.66 |  | 1.02 | 1.03 | 0.948 | 0.388 | 0.371 | 0.411 | 0.393 | 0.308 | 0.546 | 0.534 | 0.979
15 | NCI-H3122 | 1.03 | 1.04 | 1.09 | 0.983 | 1 | 1.02 | 1.02 | 1.03 | 0.208 | 0.195 | 0.209 | 0.193 | 0.335 | 0.345 | 0.384 | 0.357 | 0.387 | 1.06 | 1.01 | 0.2
16 | PC-3 [JPC-3] | 0.814 | 0.833 | 0.817 | 0.854 | 0.831 | 0.83 | 0.859 | 0.74 |  | 1.14 | 1.21 | 1.12 | 0.471 | 0.478 | 0.498 | 0.469 | 0.495 | 0.808 | 0.822 | 1.04

Reference: the supplement of paper PMC10307832
